Assay results reported in ChEMBL document CHEMBL3044695, “Synthesis and insect antifeedant activity of C-2 and C-5 substituted perhydrofurofurans and 3a-hydroxy-perhydrofurofurans (Part I)” (Tetrahedron, 1999).

Key:
Pieris brassicae [1] = test: Antifeedant activity against fifth-instar larvae of Pieris brassicae on cabbage leaf discs at 5 mM measured upto 3 hr time period by two-choice bioassay; type: functional
Pieris brassicae [2] = test: Antifeedant activity against fifth-instar larvae of Pieris brassicae on cabbage leaf discs at 5 mM measured 1.5 to 3 hr time period by no-choice bioassay; type: functional
Pieris brassicae [3] = test: Post-ingestive toxicity in Pieris brassicae on cabbage leaf discs at 5 mM; type: organism-based; conditions: in vivo, po, 5000 µM
Pieris brassicae [4] = test: Antifeedant activity against fifth-instar larvae of Pieris brassicae on cabbage leaf discs at 5 mM measured 0 to 1.5 hr time period by no-choice bioassay; type: functional

Row | SMILES | AFI (Pieris brassicae [1]) [%] | AFI (Pieris brassicae [2]) [%] | Activity (Pieris brassicae [3]) | AFI (Pieris brassicae [4]) [%]
1 | O[C@]12C=CO[C@H]1O[C@H](C1CCCCC1)C2 | 54 |  |  | 
2 | C1CCC(C2C[C@@H]3CCO[C@@H]3O2)CC1 (some centres undefined) | 26 | 5.4 | Non-toxic | 6.7
3 | CCCCCCC1C[C@H]2CC(=O)O[C@H]2O1 (some centres undefined) | -11 |  |  | 
4 | CCCCCCCCCCC1C[C@H]2CC(=O)O[C@H]2O1 (some centres undefined) | 41 |  |  | 
5 | O=C1C[C@]2(O)C[C@@H](C3CCCCC3)O[C@@H]2O1 | 9 |  |  | 
6 | C1=C[C@@H]2CC(C3CCCCC3)O[C@@H]2O1 (some centres undefined) | -2.5 | -12.3 | Non-toxic | -9.3
7 | CC(=O)OC1C[C@]2(O)C[C@@H](C3CCCCC3)O[C@@H]2O1 (some centres undefined) | 9 |  |  | 
8 | C1=C[C@@H]2CC(c3ccccc3)O[C@@H]2O1 (some centres undefined) | 11 | -2.6 | Non-toxic | -1.7
9 | CCOC1C[C@H]2CC(C3CCCCC3)O[C@H]2O1 (some centres undefined) | 20 | 9.5 | Non-toxic | 18.3
10 | OC1C[C@H]2CC(C3CCCCC3)O[C@H]2O1 (some centres undefined) | 10 | 15.9 | Non-toxic | 18.6
11 | CCCCCCCCCC[C@@H]1C[C@H]2CC(=O)O[C@H]2O1 (racemic) | 10 |  |  | 
12 | COC1C[C@]2(O)C[C@@H](C3CCCCC3)O[C@@H]2O1 (some centres undefined) | 18 |  |  | 
13 | O[C@]12CCO[C@H]1O[C@H](C1CCCCC1)C2 | 24 |  |  | 
14 | O=C1C[C@@H]2C[C@@H](c3ccccc3)O[C@@H]2O1 (racemic) | 18 |  |  | 
15 | O=C1C[C@H]2C[C@@H](C3CCCCC3)O[C@@H]2O1 (relative stereo) | 9 |  |  | 
16 | CCCCCCC1C[C@H]2C=CO[C@H]2O1 (some centres undefined) | 11 | 10.6 | Non-toxic | 20.3
17 | OC1C[C@]2(O)C[C@@H](C3CCCCC3)O[C@@H]2O1 (some centres undefined) | 16 |  |  | 
18 | O=C1C[C@@H]2C[C@H](C3CCCCC3)O[C@@H]2O1 (relative stereo) | 24 |  |  | 
19 | CC(=O)OC1C[C@H]2CC(C3CCCCC3)O[C@H]2O1 (some centres undefined) | 16 | 3 | Non-toxic | 16.7
20 | O=C1C[C@H]2CC(C3CCCCC3)O[C@H]2O1 (some centres undefined) | 10 | 13.9 | Non-toxic | 22.4
